Results: PMC10799058, “Exploring the mechanism and phytochemicals in Psoraleae Fructus-induced hepatotoxicity based on RNA-seq, in vitro screening and molecular docking” (Scientific Reports, 2024)
≈ marks a conversion by molar mass, not a printed value. Where two headings read alike, the source gives them in different places.

Columns and labels:
[1] = tested on: AML-12 cells; assay: CCK-8 assay, toxic effects on AML-12 cells; format: cell-based; settings: for IC50: CCK-8, treatment 24 h, read-out: IC50 toward AML12 cells
Protocol: To uncover the potential hepatotoxic components, CCK-8 assay was performed toevaluate the toxic effects of 9 chemicals in PF on AML-12 cells. With the treatment […]
AML-12 cells were seeded into 96-well plates for 24 h until they visibly reached confluence. Then, AML-12 cells were treated with different concentrations of the nine chemical compounds in PF for 24 h. The multiple concentrations of each compound […]
wells were set up for each group. After treatment, AML-12 cells were washed with PBS buffer gently and incubated with DMEM/F12 medium containing 10% CCK-8 solution for 0.5-2 h. OD value was measured with live cell imaging system (Cytation 5,BioTek, USA) at 450 nm.
Cell viability (%) = [(OD value of the experimental group − OD value of the blank group)/ (OD value of the control group − OD value of the blank group)] ×

[2] = tested on: AML-12 cells; assay: High-content screening of mitotoxic endpoints (MMP by TMRM, mitochondrial superoxide by MitoSOX Red); settings: 15 μmol/L, 24 h; for mitochondrial toxicity, overall ranking among 9 phytochemicals: MMP and mitochondrial superoxide taken together; for fluorescence intensity of Mitosox red (mitochondrial superoxide): versus control
Protocol: AML-12 cells were purchased from Procell (CL-0602, Wuhan, China) and cultured in cultured in DMEM/F12 medium (Gibco, Thermo Fisher Scientific, USA) with the supplement of 10% fetal bovine serum (FBS, Biological Industrials) and 1% penicillin/streptomycin (FG101-01, Transgene, China). AML-12 cells were maintained in a humidified incubator containing 5% CO2 at 37 °C.
AML-12 cells were seeded into 96-well plates and incubated at 37 °C in an atmosphere containing 5% CO2 for 12 h until they visibly reached confluence. After the cells were treated with the same concentration of each drug (15 μmol/L) for 24 h, the supernatants were removed from the cell plates and the fluorescent dyes were added. Hoechst 33,342 was applied to characterize cell counts and nuclear area. TMRM and MitoSOX™ Red were applied to characterize mitochondrial membrane potential (MMP) and mitochondrial superoxides, respectively. Then, the multi-parameter cytotoxicities were measured by a high content imaging system (Molecular Devices, Metaxpress) and subsequent data analysis was performed by Harmony 3.0 Software (Perkin Elmer, Waltham, MA, USA). Each experiment was assayed in triplicate wells and three independent replicates.

[3] = Solubility in DMEM/F12 culture medium; settings: aqueous buffer, kinetic from dmso stock

Molecule	IC50 [1] [µM]	mitochondrial toxicity, overall ranking among 9 phytochemicals [2]	fluorescence intensity of Mitosox red (mitochondrial superoxide) [2]	IC50 ([1]; Mus musculus, AML12) [µM]	solubility [3] [µM]	toxicity to AML-12 cells [1]
bavachinin	60.2	–	–	–	–	–
CC(C)=CCc1cc2c(cc1O)O[C@H](c1ccc(O)cc1)CC2=O [bavachin, Bavachin]	–	most potent mitochondrial toxicities	prominently promoted	33.2	–	–
O=c1ccc2ccc3occc3c2o1 [isopsoralen]	–	–	–	–	800 (≈ 149 µg/mL)	no obvious toxicity
CC(C)=CCc1c(O)ccc(C(=O)/C=C/c2ccc(O)cc2)c1O [isobavachalcone]	–	most potent mitochondrial toxicities	prominently promoted	28.9	–	–
CC(C)=CCc1cc2c(cc1O)oc(=O)c1c3ccc(O)cc3oc21 [psoralidin, Psoralidin]	17.7	–	prominently promoted	–	–	–
C=C[C@@](C)(/C=C/c1ccc(O)cc1)CCC=C(C)C [bakuchiol]	–	most potent mitochondrial toxicities	prominently promoted	35	–	–
Corylin	34.4	–	–	–	–	–
